Active and inactive are the calls of the source. The calls are words filed in the database; no cut-off is given here.
Legend:
Mus musculus [1] = assay: Anticonvulsant activity was measured from mES test by delivering the drug intraperitoneally after 0.5 hr; type: functional; conditions: ip
Mus musculus [2] = assay: Anticonvulsant activity was measured from scMET test by delivering the drug intraperitoneally after 0.5 hr; type: functional; conditions: ip
Mus musculus [3] = assay: ED50 was evaluated from MES test in mice by delivering intraperitoneally and the value was determined at peak time effect or peak neurologic effect.; type: functional; conditions: ip
Mus musculus [4] = assay: ED50 was evaluated from scMET test in mice by delivering intraperitoneally and the value was determined at peak time effect or peak neurologic effect.; type: functional; conditions: ip
[5] = Neurotoxicity was determined from the rotarod ataxia test for the compound by the intraperitoneal administration.; type: toxicity, organism-based; conditions: mouse, in vivo, ip
[6] = Protective index was determined as ratio of TD50 to ED50(MES method); type: functional
[7] = Protective index was determined as ratio of TD50 to ED50(scMET method); type: functional
Mus musculus [8] = organism: Mus musculus; assay: animal or person; conditions: ip
Mus musculus [9] = organism: Mus musculus
Description: ED50 was evaluated from scMET test in mice by delivering intraperitoneally and the value was determined at peak time effect or peak neurologic effect; NA-Not active

Mus musculus [10] = organism: Mus musculus; remark: listed apart in the source
Mus musculus [11] = assay: Anticonvulsant activity was measured from mES test by delivering the drug intraperitoneally after 0.5 hr; NA-Not active; type: functional, organism-based

| Compound | ED50 (Mus musculus [1]) | ED50 (Mus musculus [2]) | ED50 (Mus musculus [3]) | ED50 (Mus musculus [4]) | further results |
| --- | --- | --- | --- | --- | --- |
| NC1=NC(=O)CN1C(=O)OCc1ccccc1 | 459 mg/kg |  |  |  |  |
| CC(C)C[C@@H]1N=C(N)NC1=O |  | > 300 mg/kg |  |  |  |
| NC1=NC(=O)[C@H](Cc2ccccc2)N1C(=O)OCc1ccccc1 | 213 mg/kg | > 1000 mg/kg |  |  |  |
| CC(C)C[C@H]1C(=O)N=C(N)N1C(=O)OCc1ccccc1 | 44.5 mg/kg | 92.8 mg/kg | 98.6 mg/kg | 141 mg/kg | TD50 [5]: 350 mg/kg; PI [6]: 3.5; PI [7]: 2.5 |
| NC1=NC(=O)[C@H](Cc2ccccc2)N1 | 97.8 mg/kg | > 1000 mg/kg |  |  |  |
| CC(C)C[C@@H]1C(=O)N=C(N)N1C(=O)OCc1ccccc1 |  | 547 mg/kg |  |  |  |
| CCC1(C)CC(=O)NC1=O (stereo not given) [ETHOSUXIMIDE] |  |  | > 1000 mg/kg | 130 mg/kg | TD50 (Mus musculus [8]): 441 mg/kg |
| CCC1(c2ccccc2)NC(=O)N(C)C1=O (stereo not given) [MEPHENYTOIN] |  |  | 61 mg/kg | 31 mg/kg |  |
| NC(=O)NC(=O)Cc1ccccc1 [PHENACEMIDE] |  |  | 87 mg/kg |  | PI [6]: 4.8; PI [7]: 3.6 |
| CCC1(c2ccccc2)C(=O)NC(=O)NC1=O [PHENOBARBITAL] |  |  | 21.8 mg/kg | 13.2 mg/kg | TD50 (Mus musculus [8]): 69 mg/kg |
| O=C1NC(=O)C(c2ccccc2)(c2ccccc2)N1 [PHENYTOIN] | 2.3 mg/kg |  |  |  | ED50 (Mus musculus [9]): inactive; ED50 (Mus musculus [10]): inactive |
| O=C1NC(=S)NC1(c1ccccc1)c1ccccc1 [THIOPHENYTOIN] |  | 1340 mg/kg |  |  | ED50 (Mus musculus [11]): inactive |

From ChEMBL document CHEMBL1125842, “Synthesis and anticonvulsant activity of 2-iminohydantoins” (J Med Chem, 1991)
